Among the data in patent US9029359B2, “Heteroaryl Btk inhibitors” (Biogen Idec MA, Inc., priority 2009, dated 2015) are IC50 values, retold here.

In the experiment the target is T1, BTK (Homo sapiens, UniProt Q06187).
T1 construct: purchased Upstate 14-552
The experiment in a line: In vitro BTK kinase assay: BTK-POLYGAT-LS ASSAY. The format is biochemical. The following applies: ATP 10 uM. The method, boiled down:
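BTK phosphorylation of polyGAT (100 nM final) with ATP at 10 μM final, 10 mM Tris-HCl pH 7.5 kinase buffer, quenched by EDTA after 30 min. Potency given as IC50.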

T1 sequence (Q06187 whole entry): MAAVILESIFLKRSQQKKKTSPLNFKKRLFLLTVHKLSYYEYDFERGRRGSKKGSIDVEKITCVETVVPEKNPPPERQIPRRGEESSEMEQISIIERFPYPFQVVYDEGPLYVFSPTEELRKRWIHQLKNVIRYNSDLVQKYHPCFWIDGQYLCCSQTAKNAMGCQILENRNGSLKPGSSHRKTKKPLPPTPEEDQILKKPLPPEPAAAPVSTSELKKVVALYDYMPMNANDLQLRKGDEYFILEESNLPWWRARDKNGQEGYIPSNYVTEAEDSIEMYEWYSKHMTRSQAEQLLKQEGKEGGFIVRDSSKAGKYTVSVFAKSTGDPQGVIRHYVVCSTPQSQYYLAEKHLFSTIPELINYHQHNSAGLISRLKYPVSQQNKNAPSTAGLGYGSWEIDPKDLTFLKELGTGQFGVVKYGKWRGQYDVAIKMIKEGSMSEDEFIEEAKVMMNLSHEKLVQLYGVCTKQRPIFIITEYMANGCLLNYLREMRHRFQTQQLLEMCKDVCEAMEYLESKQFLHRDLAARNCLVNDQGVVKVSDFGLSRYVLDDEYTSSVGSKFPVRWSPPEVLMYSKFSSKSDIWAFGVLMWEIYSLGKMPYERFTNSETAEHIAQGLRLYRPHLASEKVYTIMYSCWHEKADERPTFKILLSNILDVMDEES

What is called IC50 is the concentration that gives 50% inhibition. A higher IC50 goes with a need for much substance. For `CN(CC(=O)NC1CCCN(c2ncnc3[nH]ccc23)C1)c1ccccc1` (centres unmarked) [Example 16, (N-(1-(7H-pyrrolo[2,3-d]pyrimidin-4-yl)piperidin-3-yl)-2-(methyl(phenyl)amino)acetamide)], the IC50 was 1000 to 10000 nM.

Consider `O=C(CNC1CCCCC1)NC1CCCN(c2ncnc3[nH]ccc23)C1` (centres unmarked) [Example 354], for which the IC50 is > 10000 nM.

`O=C(CNc1cc(Cl)ccc1Cl)N[C@@H]1CCCN(c2ncnc3[nH]ccc23)C1` [Example 319] returned an IC50 of 100 to 999 nM.

The molecule `O=C(CNc1ccc(F)c(I)c1)N[C@@H]1CCCN(c2ncnc3[nH]ccc23)C1` [Example 275] registered an IC50 of 100 to 999 nM.

`O=C(N[C@@H]1CCCN(c2ncnc3[nH]ccc23)C1)[C@H](Nc1cc(F)cc(C(F)(F)F)c1)C1CC1` [Example 121, (R)—N—((R)-1-(7H-pyrrolo[2,3-d]pyrimidin-4-yl)piperidin-3-yl)-2-cyclopropyl-2-(3-fluoro-5-(trifluoromethyl)phenylamino)acetamide]: the IC50 is < 100 nM.

Take `O=C(CNc1cccc(-c2cnco2)c1)N[C@@H]1CCCN(c2ncnc3[nH]ccc23)C1` [Example 435]: the IC50 is 1000 to 10000 nM.

`O=C(CNc1ccccc1N1CCOCC1)N[C@@H]1CCCN(c2ncnc3[nH]ccc23)C1` [Example 444]: the IC50 fell in the range of 1000 to 10000 nM.

`CCC[C@@H](Nc1cccc(Cl)c1)C(=O)N[C@@H]1CCCN(c2ncnc3[nH]ncc23)C1` [Example 169]: the IC50 is < 100 nM.

With `CC[C@@H](Nc1ccccc1)C(=O)N[C@@H]1CCCN(c2ncnc3[nH]ccc23)C1` [Example 114, (R)—N—((R)-1-(7H-pyrrolo[2,3-d]pyrimidin-4-yl)piperidin-3-yl)-2-(phenylamino)butanamide], the IC50 was < 100 nM.

On to `O=C(N[C@@H]1CCCN(c2ncnc3[nH]ccc23)C1)[C@H]1CCc2ccccc2N1` [Example 14, (R)—N—((R)-1-(7H-pyrrolo[2,3-d]pyrimidin-4-yl)piperidin-3-yl)-1,2,3,4-tetrahydroquinoline-2-carboxamide], for which the IC50 was 1000 to 10000 nM.

Consider `CC[C@@H](Nc1ccccc1C(C)C)C(=O)N[C@@H]1CCCN(c2ncnc3[nH]ccc23)C1` [Example 249], for which the IC50 was in the range of 100 to 999 nM.

`CC(C)CCSc1ccccc1NCC(=O)N[C@@H]1CCCN(c2ncnc3[nH]ccc23)C1` [Example 188]: the IC50 is < 100 nM.

In turn, `CC(C)(C)Oc1ccccc1NCC(=O)N[C@@H]1CCCN(c2ncnc3[nH]ccc23)C1` [Example 384] returned an IC50 of 100 to 999 nM.

With `Cc1c(Cl)cccc1NCC(=O)N[C@@H]1CCCN(c2ncnc3[nH]ccc23)C1` [Example 272], the IC50 is < 100 nM.

Consider `O=C(CNc1ccccc1S(=O)(=O)c1cccc(C(F)(F)F)c1)N[C@@H]1CCCN(c2ncnc3[nH]ncc23)C1` [Example 187], for which the IC50 is < 100 nM.

`O=C(CNC1CCCN(c2ncnc3[nH]ccc23)C1)Nc1ccccc1` (centres unmarked) [Example 363]: the IC50 is > 10000 nM.

In the case of `COc1ccc(C)cc1NCC(=O)N[C@@H]1CCCN(c2ncnc3[nH]ccc23)C1` [Example 270], the IC50 was < 100 nM.

Turning to `O=C(CNc1ccccc1OCCc1ccccc1)N[C@@H]1CCCN(c2ncnc3[nH]ccc23)C1` [Example 221], the 50% inhibitory concentration (IC50) is < 100 nM.

On to `O=C(CNc1ccccc1S(=O)(=O)N1CCC(C(F)(F)F)CC1)N[C@@H]1CCCN(c2ncnc3[nH]ncc23)C1` [Example 228], for which the IC50 is < 100 nM.

On to `Cc1cc(NCC(=O)NC2CCCN(c3ncnc4[nH]ccc34)C2)n(C)n1` (centres unmarked) [Example 347], for which the IC50 is > 10000 nM.

The molecule `O=C(N[C@@H]1CCCN(c2ncnc3[nH]ccc23)C1)C1(Nc2ccccc2)CC1` [Example 126, (R)—N-(1-(7H-pyrrolo[2,3-d]pyrimidin-4-yl)piperidin-3-yl)-1-(phenylamino)cyclopropanecarboxamide] gave an IC50 of 1000 to 10000 nM.

As to `O=C(CNc1cccc(N2CCNC2=O)c1)NC1CCCN(c2ncnc3[nH]ccc23)C1` (centres unmarked) [Example 337], the IC50 was > 10000 nM.

Turning to `CCN(CC)S(=O)(=O)c1ccccc1NCC(=O)N[C@@H]1CCCN(c2ncnc3[nH]ncc23)C1` [Example 195], the IC50 is < 100 nM.

Take `O=C(Nc1ccccc1)C(=O)NC1CCCN(c2ncnc3[nH]ccc23)C1` (centres unmarked) [Example 4]: the IC50 is > 10000 nM.

For the molecule `CCc1cccc(C)c1NCC(=O)N[C@@H]1CCCN(c2ncnc3[nH]ccc23)C1` [Example 403], the 50% inhibitory concentration (IC50) lay in the range of 1000 to 10000 nM.

In turn, `N#Cc1cc(Cl)cc(NCC(=O)N[C@@H]2CCCN(c3ncnc4[nH]ccc34)C2)c1` [Example 297] registered an IC50 of 100 to 999 nM.

`CC(C)(C)[C@@H](Nc1cc(F)cc(Cl)c1)C(=O)N[C@@H]1CCCN(c2ncnc3[nH]ccc23)C1` [Example 124, (R)—N—((R)-1-(7H-pyrrolo[2,3-d]pyrimidin-4-yl)piperidin-3-yl)-2-(3-chloro-5-fluorophenylamino)-3,3-dimethylbutanamide]: the IC50 was < 100 nM.

For the molecule `CCc1cccc(CC)c1NCC(=O)NC1CCCN(c2ncnc3[nH]ccc23)C1` (centres unmarked) [Example 30, (N-(1-(7H-pyrrolo[2,3-d]pyrimidin-4-yl)piperidin-3-yl)-2-(2,6-diethylphenylamino)acetamide)], the concentration for half-maximal inhibition (IC50) lay within 1000 to 10000 nM.

As for `O=C(CNc1cccc2ccncc12)NC1CCCN(c2ncnc3[nH]ccc23)C1` (centres unmarked) [Example 329], the IC50 is > 10000 nM.

With `CC[C@H](C)[C@@H](Nc1ccccc1)C(=O)N[C@@H]1CCCN(c2ncnc3[nH]ccc23)C1` [Example 115, (2R,3S)—N—((R)-1-(7H-pyrrolo[2,3-d]pyrimidin-4-yl)piperidin-3-yl)-3-methyl-2-(phenylamino)pentanamide], the IC50 was 100 to 999 nM.

Consider `Cc1c(F)cccc1NCC(=O)N[C@@H]1CCCN(c2ncnc3[nH]ccc23)C1` [Example 267], for which the IC50 fell in the range of 100 to 999 nM.

`CC(C)[C@@H](Nc1ccccc1)C(=O)N[C@@H]1CCCN(c2ncnc3[nH]ccc23)C1` [Example 103, (R)—N—((R)-1-(7H-pyrrolo[2,3-d]pyrimidin-4-yl)piperidin-3-yl)-3-methyl-2-(phenylamino)butanamide] came in with a 50% inhibitory concentration (IC50) of 100 to 999 nM.

Turning to `O=C(CNc1cccc(-n2cccc2)c1)N[C@@H]1CCCN(c2ncnc3[nH]ccc23)C1` [Example 303], the IC50 lay in the range of 100 to 999 nM.

On to `C[C@H](O)[C@@H](Nc1cc(F)cc(Cl)c1)C(=O)N[C@@H]1CCCN(c2ncnc3[nH]ccc23)C1` [Example 206], for which the IC50 is < 100 nM.

With `O=C(CNc1cccc2c1OC(F)(F)O2)NC1CCCN(c2ncnc3[nH]ccc23)C1` (centres unmarked) [Example 25, (N-(1-(7H-pyrrolo[2,3-d]pyrimidin-4-yl)piperidin-3-yl)-2-(2,2-difluorobenzo[d][1,3]dioxol-4-ylamino)acetamide)], the IC50 was < 100 nM.

For `CC(C)(C)c1cccc(NCC(=O)NC2CCCN(c3ncnc4[nH]ccc34)C2)c1` (centres unmarked) [Example 18, (N-(1-(7H-pyrrolo[2,3-d]pyrimidin-4-yl)piperidin-3-yl)-2-(3-ten-butylphenylamino)acetamide)], the 50% inhibitory concentration (IC50) is 100 to 999 nM.

The molecule `O=C(CNc1ccccc1)N(CCN1CCOCC1)C1CCCN(c2ncnc3[nH]ccc23)C1` (centres unmarked) [Example 323] had a 50% inhibitory concentration (IC50) of 100 to 999 nM.

As for `O=C(N[C@@H]1CCCN(c2ncnc3[nH]ccc23)C1)[C@H](Nc1cccc(Cl)c1)C1CC1` [Example 119, (R)—N—((R)-1-(7H-pyrrolo[2,3-d]pyrimidin-4-yl)piperidin-3-yl)-2-(3-chlorophenylamino)-2-cyclopropylacetamide], the half-maximal inhibitory concentration (IC50) is < 100 nM.
